In a melting point compilation (Tetko et al.; mined from patent text by program, amines drawn as free bases though some values may be those of a salt):

SMILES | melting point [°C]
CC(C)(C)OC(=O)NC(CO)C(=O)c1ccccc1 (stereo unspecified) | 69 to 71
COc1ccccc1C(=O)CN1c2nc(-c3ccncc3)cc(=O)n2CCC1c1ccccc1 (stereo unspecified) | 142 to 144
O=C(c1nccs1)c1cnn2c(-c3ccncc3)ccnc12 | 323 to 325
Nc1nc(SSc2n[nH]c(N)n2)n[nH]1 | 250 to 256
Cc1cc(C(C)C)c(C=O)[nH]1 | 90 to 93
CNCC1Cc2cc(C)cc(-c3cccc(OC)c3OC)c2O1 (stereo unspecified) | 85 to 89
O=S(=O)(c1ccc(Nc2nccc(-c3ccc(C(F)(F)F)cc3)n2)cc1)N1CCOCC1 | 240 to 241
CC(C)(C)c1ccc(SC(CCl)S(=O)(=O)c2ccccc2)cc1 (stereo unspecified) | 67 to 69
CS(=O)(=O)c1ccc(-c2nn3ccoc3c2-c2ccc(F)cc2)cc1 | 67 to 70
N#Cc1ccc(C2NCCc3ccccc32)cc1 (racemic) | 114 to 115
CS(=O)(=O)c1ccc(-c2ccc(C=C(Cl)Cl)s2)cc1 | 143 to 145
CCOC(=O)C(Cc1ccc(F)cc1)C(=O)c1ccc(C(F)(F)F)cc1 (stereo unspecified) | 52 to 53
N#Cc1ccc(-c2ccc(-c3ccn([C@H](CC(=O)OCc4ccccc4)C(=O)N[C@H](CO)Cc4ccccc4)c3)cc2)cc1 | 149 to 150
CN(c1cccc2cc(-c3nccs3)[nH]c12)S(=O)(=O)c1ccsc1CCl | 190
CCOC(=O)c1c(C)ccnc1Sc1nc(C)c(CC(=O)O)s1 | 164 to 166
COc1ccncc1C#N | 124 to 126
CC(C)(C)c1nc(C=O)c[nH]1 | 194 to 195
COc1ccc(-c2cc3cc(F)c(F)cc3[nH]2)cc1NC(=S)Nc1ccc(C(=O)O)cc1 | 201 to 203
Cc1cccc2cc3c(=O)n(CCc4cn(C(=O)NCCN(C)C)c5ccccc45)cc(C(=O)NCCN(C)C)c3nc12 | 182 to 185

SMILES | melting point [°C]
O=S(=O)(Nc1ccc2[nH]ncc2c1)C1CCNCC1 | 120 to 123
Cc1cn(S(C)(=O)=O)c2c1C(=O)CC(c1ccccc1F)C2 (stereo unspecified) | 130 to 134
O=C(CNc1ccccc1)Nc1ccc(F)cc1C(=O)O | 194 to 195
NCC1(c2onc(-c3ccc(O)cc3)c2-c2ccccc2)CC1 | 220 to 225
NS(=O)(=O)c1cc2[nH]c(CCCCc3ccccc3)nc2cc1Cl | 176 to 180
C=C(Cl)C[C@@H](CC(=O)N(CC(=O)N(C)CCc1ccccn1)CC1CCCCC1)C(=O)N[C@@H](CC1CCCCC1)[C@@H](O)[C@@H](O)CC(C)C | 140
COC(=O)c1cc(I)ccc1NC=C1C(=O)OC(C)(C)OC1=O | 206 to 208
CNc1cc(F)ccc1C(=O)Cc1nnnn1C | 132 to 134
O=C(Nc1ccc(Cl)cc1)C(Oc1cccc2ccccc12)C1CC1 (stereo unspecified) | 204 to 206
O=C(O)c1ccc(COCc2csc3nc(C(=O)NCCc4ccccc4)[nH]c(=O)c23)cc1 | 227 to 229
CN(C)c1ccc(-c2ccnc3c(C(=O)c4cccs4)cnn23)cc1NC(=O)c1ccccc1Cl | 220 to 222
O=C(O)Cn1c(=O)c(=O)n(O)c2ccc(Cl)cc21 | 280 to 282
O=C(NCC1CCN(CC2COc3ccccc3O2)CC1)c1ccccn1 (stereo unspecified) | 95 to 97
O=C(Nc1cccc2c1C(=O)c1c-2n[nH]c1-c1ccc(N2CCNCC2)cc1)NN1CCC[C@@H]1CO | 190
CCCc1nc2cnc3cc(OCC(=O)N4CCOCC4)ccc3c2s1 | 133 to 136
COc1cc(Nc2nc3cccc(-c4cccc(CNC(C)=O)c4)c3o2)cc(OC)c1OC | 203 to 204
CCOC(=O)C1SCCN1C(=S)Nc1cc(Cl)cc(Cl)c1 (stereo unspecified) | 170 to 172
CCOC(=O)c1cn(-c2nc(NC)c(F)cc2F)c2c(Cl)c(F)c(F)cc2c1=O | 207 to 209
CC(C)(O)CNCCN(C1CCNCC1)S(=O)(=O)c1ccc(Nc2nccc(Nc3ccc(F)cc3)n2)cc1 | 120

SMILES | melting point [°C]
O=Cc1ccc(CNc2ccccn2)c(Cl)c1 | 122 to 123
CCn1c(N)c(C(=O)NC)c(=O)c2ccc(Cl)nc21 | 283 to 286
CCCc1c2c(c3oc(C(=O)O)cc(=O)c3c1O)CCCC2 | 226 to 227
O=C(CCn1cnc2c(=O)[nH]cnc21)NCCO | 225 to 229
Cc1c(OCC(F)(F)F)ccnc1CSc1nc2cc(CO)ccc2[nH]1 | 153 to 155
O=C(O)CCC(NC(=O)c1cccc(-c2ccccc2OC2OC(CO)C(O)C(O)C2O)c1)C(=O)O (stereo unspecified) | 109 to 112
O=C(/C=C/c1ccc(C(=O)O)s1)NOC1CCCCO1 (stereo unspecified) | 177
CN(C)c1cccc(NC(=O)c2cccc(S(=O)(=O)N3CCCCCC3)c2)c1 | 178 to 180
COc1cc(CSc2ccccn2)nc(N)n1 | 115 to 116
CCOP(=O)(OCC)c1cc2cc([N+](=O)[O-])c(Cl)cc2[nH]c1=O | 258 to 262
COc1ccc(C(=O)CCC(=O)N[C@@H](C)C(=O)O)cc1 | 100 to 102
CC(=O)c1cc(Cl)ccc1NS(=O)(=O)C(F)(F)F | 36 to 38
c1ccc(-c2nc(COc3ccc(CCCCn4ccnc4)cc3)cs2)cc1 | 93 to 94
CC(=O)N1CCSc2cccc(Cl)c2C1 | 79 to 81
Cc1nccn1-c1ccc(Sc2cccc(C3(C(N)=O)CCOCC3)c2)cc1 | 184 to 185
CCCOCc1nc(C(C)(C)O)c(C(=O)O)n1Cc1ccc(-c2ccccc2-c2nnn[nH]2)cc1 | 166 to 168
Cc1cc(C)c(S(=O)(=O)NC(C)CS)c(C)c1 (stereo unspecified) | 74 to 76
CCN1CCCC1CNC(=O)c1cc(S(N)(=O)=O)cc2c1OC(C)C2 (stereo unspecified) | 164 to 165
CCCn1c(=O)c2c(nc(/C=C/c3ccc(OC(=O)c4ccccc4)c(OC(=O)c4ccccc4)c3)n2C)n(CCC)c1=O | 231

Other lines, results leading:

melting point [°C] | SMILES
138 to 140 | O=C(Nc1cccc([N+](=O)[O-])c1)C(=O)N1CCC(Cc2ccccc2)CC1
115 to 117 | CCCCSc1nc(N)c(C#N)s1
147 to 148 | COc1cc(Br)c(Nc2nc(C)nc(-c3ccccc3C(F)(F)F)c2[N+](=O)[O-])c(OC)c1
33 to 33.5 | CC(=O)/C=C(\C)c1ccc(C2CCCC2)cc1
201 to 203 | COc1ccc(CNc2cc(C(N)=O)c([N+](=O)[O-])cc2[N+](=O)[O-])cc1
181 to 183 | O=C1Cc2ccccc2-c2cc(-c3ccccc3)nn21
173 | CC(C)n1c(=O)n(C(=O)NCC2CCN(CC3(C(=O)O)CCC3)CC2)c2ccccc21
80 to 85 | CN(C)C(=O)c1ncccc1OC1SCC(O)C(O)C1O (stereo unspecified)
116 to 117 | O=C(c1ccc(I)cc1)N1CCOCC1
180 to 181 | O=C1c2cc3nnn(Cn4cc(Br)cn4)c(=O)c3cc2OC2CCCN12 (stereo unspecified)
201 to 202 | CCOC(=O)c1cc(=O)c2cc3c(=O)cc(C(=O)OCC)oc3cc2[nH]1
265 to 268 | O=C1Nc2cc(CN3CCN(c4ccc(Cl)cc4)CC3)cnc2N2CCC[C@@H]12
> 200 | O=C1CNc2ncc(I)cc2N1Cc1cc(Cl)ccc1Cl
192 to 193 | CC(C)n1c(=O)[nH]c2cc(-c3ncc(C(F)(F)F)cc3Cl)ccc21
180 to 181 | O=C1CC(c2ccccc2)c2ccccc2CN1 (stereo unspecified)
134 to 135 | CCCn1c(CCOC)nc2c(N)nc3cc(OCCCNC(=O)OC(C)(C)C)ccc3c21
170 to 172 | C1=C(OCc2ccccc2)CCN(Cc2nc3ccccc3[nH]2)C1
116 to 118 | O=C1OC(c2ccc(F)cc2)c2ncccc21 (stereo unspecified)
116 to 118 | CC(C)=CCNc1cccc(-c2ccnc3c(C(=O)c4cccs4)cnn23)c1
137 to 138 | CC1(C2CCC3C4C=CC5=CC(=O)C6OC6C5(C)C4CCC32C)OCCO1 (stereo unspecified)
178 to 180 | COC(=O)C1=C(O)c2sc(C(F)(F)F)cc2S(=O)(=O)N1C
184 to 186 | Clc1ccc2c(NCc3ccccc3)c3cccn3nc2c1

melting point [°C] | SMILES
144 to 146 | COC(=O)c1cccc2c1C(Cc1ccncc1)(Cc1ccnc(F)c1)c1ccccc1-2 (stereo unspecified)
> 300 | CCCn1c(=O)c(=O)[nH]c2cc([N+](=O)[O-])c(-n3ccc(=O)cc3)cc21
67 to 70 | CC(C)(C)C#CC(O)C#CC(C)(C)C
128 | CCCCC(CC)COc1cc(CO)c(-n2c3ccccc3c3ccccc32)cc1CO (stereo unspecified)
215 to 216 | Brc1cccc2ncn3ccnc3c12
152 | Cc1noc(C)c1-c1ccc(C[C@H](NC(=O)c2c(Cl)cccc2Cl)C(=O)O)cc1
140 to 145 | O=C(Nc1ccnn1-c1c(Cl)cc(C(F)(F)F)c(Cl)c1Cl)C(F)(F)F
95 to 96 | CC(=O)C(C)(O)C1(C)OC(C)=CC1=O (stereo unspecified)
173 to 178 | CS(=O)(=O)c1ccc(-c2nc3cc(OC(=O)N4CCCCC4)ccc3s2)c(F)c1
262 | CN1C(C(=O)Nc2nc3ccccc3s2)=C(O)c2ccc3ccccc3c2S1(=O)=O
96 to 98 | CCOC(=O)c1c(Cn2cnnc2)nc2sc(C)c(C)c2c1-c1ccc2c(c1)OCO2
326 to 328 | O=C(Nc1cccnc1)c1nnc2ccccc2c1O
84 to 87 | CN1CCOc2cc(O)ccc21
145 | CC(=O)Oc1ccc(-c2c(C)c3ccc(OC(C)=O)cc3oc2=O)c(OC(C)=O)c1
98 to 99 | CC(Cl)C(=O)Nc1nc(-c2ccccc2)cs1 (stereo unspecified)
140 to 141 | CCN1c2ncc(COc3ccccc3)cc2C(=O)N(C)c2ccc(Cl)nc21
195 to 198 | CC(C)(C)OC(=O)NNC(=O)N1CCN(NC(=O)OCc2ccccc2)C1=O
148 | CNc1ncc2c(n1)N(C1CCC(C(=O)O)CC1)C(=O)N(c1c(F)c(OC)cc(OC)c1F)C2 (stereo unspecified)
171 to 173 | CC1(C)COc2ccc(C(=O)O)cc21
165 to 166 | Cc1cc(-c2ccccc2)n2ncc(C(=O)c3ccccc3)c2n1
133 to 135 | CC(C)OC(=O)c1cc(Cl)c(Cl)c(-c2ccc(Cl)cc2)n1
199 to 201 | CC(C)COc1cc(N(C)C)ccc1C(=O)c1ccccc1C(=O)O
